The source of these data is patent US12569498B2, “Methods and compositions for the prevention and treatment of ischemia reperfusion injury and infection” (CHILDREN'S NATIONAL MEDICAL CENTER, priority 2019, dated 2026).

Series [1] concerns NFKB targets (TLR4, NLRP3, Trim63, Fbxo32). Briefly: RT-PCR of downstream NFKB target genes after testicular torsion. The settings on record: testis, 18 hours following testicular torsion. It is filed as in vivo, CD1 mice. Here is the method: (§1) Mice underwent testicular torsion as previously described (Lysiak 2001). Briefly, mice were anesthetized with isoflurane over a heating pad. The right testis was delivered through a low scrotal incision and rotated counterclockwise 720 degrees to induce ischemia for 2 hours. […] All animals were injected with long-acting buprenorphine (0.1 mg/kg) for long-term pain control prior to being recovered from anesthesia. Mice were euthanized either 18 hours or 30 days following torsion. Mice kept for 30 days after surgery were weighed on a weekly basis.
(§2) Cytisine (Sigma-Aldrich, St. Louis, MO) was administered intraperitoneally at a dose of 0.1 μg/gram either 1 hour before torsion or 1 hour after torsion (1 hour prior to detorsion). Varenicline ([…]) was administered as an intraperitoneal injection one hour after the onset of torsion and then continued every 12 hours for a total of 4 doses.
(§3) RNA was isolated from testis tissue using RNEasy mini kit (Qiagen, Hilden, Germany) using the manufacturer's protocol. RNA concentration was measured with Nanodrop 8000 (Thermo Scientific, Waltham, MA). cDNA was synthesized using Superscript First-Strand Synthesis system for RT-PCR (Invitrogen, Carlsbad, CA) on a GeneAmp PCR System 9700 (Applied Biosystems, Foster City, CA) Real-Real-time PCR was performed using QuantStudio 7 Flex (Applied Biosystems, Foster City, CA). Software Quantstudio Real-Time PCR Software (Thermo Fisher Scientific, Waltham, MA). TaqMan Gene Expression Assays (Applied Biosystems, Foster City, CA). Standard TaqMan primers were used for Col1, Col3, Vim, SMA.
NFKB signaling results in the upregulation of several downstream targets, which propagate the inflammatory cascade. To determine if varenicline administration reduced activation of the NFKB axis, quantitative PCR of established downstream NFKB targets was performed.

Series [2] in a line: Masson trichrome staining and ImageJ quantification of collagen in testis 30 days after torsion. It is filed as in vivo, CD1 mice. The settings on record: 30 days following torsion, vs untreated, cytisine p<0.01, varenicline p<0.0001. The protocol:
as §1, §2
Testis tissue was harvested and stored in 70% ethanol. Fixation, embedding, sectioning, and staining were performed by the research pathology core at George Washington University. Sections were cut at a thickness of […]. Tissues were stained for H&E or Masson trichrome. Photographs were scanned at 20× resolution with Olympus VS120 virtual slide microscope system. TIF images were analyzed with ImageJ Fiji software as previously described (Caetano, Fronza et al. 2016). The color deconvolution plugin was used to perform ImageJ analysis on an area measuring 3000 square pixels. Automatic thresholding was performed. The amount of collagen in each area is expressed as the percentage of blue pixels in the image area taken as an average of 3 non-overlapping measurements.

Series [3] deals with pro-fibrotic genes Col1, Col3, Vim, SMA. Briefly: RT-PCR of pro-fibrotic markers in testis 30 days after torsion. The settings on record: for relative expression of collagen 1 (Col1) / relative expression of collagen 3 (Col3) / relative expression of smooth muscle actin (Sma) / relative expression of vimentin (Vim): 30 days following torsion, vs untreated. It is filed as in vivo, CD1 mice. The protocol: as §1, §2, §3

Series [4] in a line: Renal scar formation and trichrome collagen quantification after acute pyelonephritis. Format: in vivo, C3H/HeOuJ mice. The protocol: To initiate pyelonephritis, the bladder was catheterized with a 24-gauge angiocatheter and a total volume of 100 μL of a phosphate-buffered saline containing […] colony forming units (CFU) of CFT073 uropathogenic Escherichia coli (UPEC) was then instilled.
Tissues were preserved in formalin for 72 hours then stored in ethanol. Sections were cut to a 5 μm thickness and stained with H&E or Masson trichrome. Photographs were obtained at 20× resolution with Olympus VS120 virtual slide microscope system. The images were then analyzed with ImageJ Fiji software in order to quantify collagen deposition as previously described (Chen 2017). As collagen deposition would be expected as long-term sequelae of IRI, the trichrome stains of the long-term specimen were examined. All artifacts from the staining process as well as gross collecting system were cropped from these images prior to analysis. A color deconvolution plugin was used to separate the trichrome images into the separate colors. Analysis was performed based upon the percentage of deposition of collagen in the green image compared to the overall area of the kidneys.
Tissues harvested 21 days following completion of antibiotic therapy were subjected to trichome staining to assess for global collagen deposition. After removing artifacts (to ensure only parenchyma was included in the analysis), a color deconvolution plugin was used for ImageJ to divide the images into the respective three colors of the trichrome stain. A threshold was set and collagen was quantified as a percentage of green color in respect to the area of the entire kidney (FIG. 13).

The conditions of series [5]: mice (Obach 2006); cited from earlier work.
For another series, the target named is α7nAChR (Homo sapiens, UniProt P36544). The note with it: peak concentrations in smokers / levels with therapeutic dosing in humans (Campling 2013); cited from earlier work.
Sequence of α7nAChR (P36544 23-502): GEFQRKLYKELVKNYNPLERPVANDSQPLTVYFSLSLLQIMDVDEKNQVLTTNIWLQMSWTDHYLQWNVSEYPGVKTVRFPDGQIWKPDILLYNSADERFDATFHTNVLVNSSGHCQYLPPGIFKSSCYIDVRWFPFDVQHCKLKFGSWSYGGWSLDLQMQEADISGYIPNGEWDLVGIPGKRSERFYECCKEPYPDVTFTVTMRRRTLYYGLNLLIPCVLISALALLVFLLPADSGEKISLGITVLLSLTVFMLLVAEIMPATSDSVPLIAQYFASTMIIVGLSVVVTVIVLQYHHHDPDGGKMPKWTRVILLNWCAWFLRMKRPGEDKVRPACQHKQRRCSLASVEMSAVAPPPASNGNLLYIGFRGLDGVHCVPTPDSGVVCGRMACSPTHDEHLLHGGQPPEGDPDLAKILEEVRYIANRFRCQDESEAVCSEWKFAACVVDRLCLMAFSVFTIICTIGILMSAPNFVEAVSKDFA

Each structure is given as a SMILES string. “Also recorded” adds a separate entry of the source.

As for `c1cnc2cc3c(cc2n1)C1CNCC3C1` [varenicline, 7,8,9, 10-tetrahydro-6, 10-methano-6H-pyrazino[2,3-h][3]benzazepine], the “expression of Fbxo32” value in series [1] (p<0.0001) was “significantly decreased the expression”. Further, the “expression of TLR4” value in series [1] (p<0.01) was “significantly decreased the expression”. For the same compound, the “expression of NLRP3” value in series [1] (p<0.05) is given as “significantly decreased the expression”. Further, in series [1] (p≤0.034), the “expression of Trim63” value was “significantly decreased the expression”. Also, the “collagen content of testis (trichrome staining, percentage of collagen)” value in series [2] is “untreated group had significantly higher collagen content; also recorded: decreased histologic and genetic markers of testicular fibrosis”. Besides, the “collagen content of testis (trichrome staining, percentage of collagen)” value in series [2] (listed as Varenicline) is “significantly higher percentage of collagen in the untreated animals”. In series [3], the “relative expression of collagen 1 (Col1)” value is “reduced the expression; also recorded: significantly decreased”, the “relative expression of collagen 3 (Col3)” value is listed as “reduced the expression; also recorded: significantly decreased”, the “relative expression of smooth muscle actin (Sma)” value was “reduced the expression; also recorded: significantly decreased” and the “relative expression of vimentin (Vim)” value is “reduced the expression; also recorded: significantly decreased”. For the same compound, in series [3] (listed as Varenicline), the “relative expression of collagen 1 (Col1)” value is “significantly decreased”, the “relative expression of collagen 3 (Col3)” value is listed as “significantly decreased”, the “relative expression of smooth muscle actin (Sma)” value is given as “significantly decreased” and the “relative expression of vimentin (Vim)” value is “significantly decreased”. In series [3] (long term (30 day) outcome, genes not itemised), the “expression of pro-fibrotic genes / genetic markers of testicular fibrosis” value was “decreased histologic and genetic markers of testicular fibrosis”. Besides, the “collagen deposition in the kidneys (percentage of green pigment per area of entire kidney)” value in series [4] (21 days following completion of antibiotic therapy, varenicline plus ceftriaxone vs ceftriaxone alone, p=0.001) is “significantly lower amount of collagen deposition; also recorded: long-term decrease in collagen deposition”. For the same compound, the “incidence of renal scar formation and renal atrophy” value in series [4] (30 days following acute pyelonephritis, preliminary results) is “decreased”. For the same compound, the half-life in series [5] is 1.4 h. The “activation of α7nAChR at clinically reached concentrations” value at α7nAChR was “α7nAChR agonist at concentrations found with therapeutic dosing in humans; also recorded: strong α4β2nAChR and α7nAChR agonist”.
